Reference: patent publication EP2229935A1, “Peptide derivatives or pharmaceutically acceptable salts thereof, method for producing the same, use of said derivatives and pharmaceutical composition” (Nebolsin, Vladimir Evgenievich, priority 1997, dated 1999)
Marks after values point to notes of the source that are not given here.

Assays:
[1] = system: lipid peroxidation (LP) products; assay: Antioxidant activity in vivo: acute toxic hepatic lesion with CCl4; conditions: rats, CCl4 3 days; for Liver, MDA, nM/mg of tissue / Liver, diene conjugates, E232/mg of tissue / Liver, diene ketones, trienes E278/mg of tissue: intragastral
Protocol: Antioxidant activity was studied in an in vivo experiment on the model of acute toxic hepatic lesion with carbon quadrichloride (CCl4).
Experiment was carried out on 40 mongrel male rats with initial body mass 190-200 g fed a standard vivarium ration. Each group included 10 animals. Hepatic lesion (experimental hepatitis) was induced in animals by intragastral administration of 0.25 ml per 100 g of body mass CCl4 in the form of 50% solution in vaseline oil for 3 days [Vengerovsky A.I., Chuchalin V.S., Pauls O.V., Saratikov A.S. Effect of hepatoprotectors on lipid metabolism in hepatitis induced by Ccl4. Bulletin of Experimental Biology (1987), No 4, pp. 430-432]. […] Animals of the control group were administered CCl4 as described above (group 2). Intact animals were orally given normal saline in an equivalent amount (group 1).
The content of primary lipid peroxidation (LP) products - diene conjugates, diene ketones and trienes - were determined using the published method [Volchegorsky I.A., Nalimov A.G., Yarovinsky B.G., Lifshits R.I. Comparison of different approaches to determining lipid peroxidation products in heptane-isopropanolic blood extracts. Voprosy Meditsinskoy Chimii (Problems of Medical Chemistry) (1989),No 1, pp. 127-131]. Content calculation of LP products was done correlating the values of respective extinctions with 1 ml of test sample.
The amount of LP final product - malonic dialdehyde (MDA) - was determined by the test with thiobarbituric acid (TBA) [Korobeinikova E.N. Modification of lipid peroxidation products in the reaction with thiobarbituric acid. Laboratornoye delo (Laboratory Matter) (1989), No 7, pp. 8-10]. Concentration of TBA-active product was calculated using regression equation. MDA content in the liver of experimental animals was assessed using the modified method [Stalnaya I.D., Garishvili T.G. The method of determining malonic dialdehyde using thiobarbituric acid. In: Modem methods in biochemistry. Moscow, Meditsina publishers. (1977), pp. 66-69], performing preliminary extraction of lipids according to Folch [Cates M. Technology of Lipidology. Moscow, Mir publishers (1975), pp. 74-76].

P-450 and B5 cytochromes = assay: Hepatic content of P-450 and B5 cytochromes (microsomal liver fraction); assay type: in vivo, guinea pigs; conditions: guinea pig liver microsomes; administered three times 72, 48 and 24 hours before
Protocol: Change in hepatic monooxygenase system was studied on mongrel male guinea pigs with initial mass 250-300 g; each group included 12 animals. […]. The content of P-450 and […] cytochromes was measured according to the published method [Omura T., Scato R. The monooxide binding pigment of liver microsomes. 11. Solubilization, purification and properties. J. Chem. (1964), Vol. 239, pp. 2379-2385] in microsomal liver fraction, isolated using differential centrifugation method [Ahokas J., Pelkonen O., Karkin N. Charcaterisation of BP-hydroxylase of Trout-liver. Cancer Res. (1977), Vol. 37, pp. 3737-3743]. The priority method {Izotov M.V., Scherbakov V.M., Devichensky V.M. et al. The method of determining the content of P-450 cytochrome isoenzymes in liver microsomes. The inventor's certificate No 1,488,738. B.I. (1989), No 3.-6.06.09, ICI, 01. - No 33/15, No 33/48]. Microsomal protein content was determined using the modified Lowry method [Hartree E. Determination of protein: a modification of the Lowry method, that gives a linear photometric responces. Ann. Biochem. (1972), Vol. 48, pp. 422-427].

superoxide anion-radical = assay: Superoxide anion-radical formation in the xantine-xantine oxidase system (chemiluminescence); assay type: biochemical
Protocol: Effect of the compounds of general formula (I) on change in chemiluminescence (CL) determined by hydroxyl radical ( OH) and superoxide anion-radical (O2-), in the model chemical and enzymatic systems.
5 to 10 ml of the test compounds dissolved in water were at needed concentration introduced into a cuvette. A total sample volume was 0.5 ml. • B. Superoxide anion-radical in the mixture of xantine and xantine oxidase [Afanas'ev I., Suslova T., Cheremisina Z. et al. Study of antioxidant properties of metal aspartates.
Incubation medium comprised 5 mM KH2PO4; 0.2 IU/ml xantine oxidase. Xantine at concentration 1 mM was introduced into sample through a dispencer. Luceginine (0.2 mM) was used in this system as luminiscence sensitizer.
CL signal indication was performed by its integration every 10 seconds for 5 minutes. CL flash recording duration after mixing ingredients, depended on a particular process kinetics. For each system, CL light sum (mV) was determined in the control samples without preparations (I-) and in samples comprising respective concentrations of preparations (I+). To estimate CL inhibition (activation) degree, the I+/I- ratio (in relative units) was found in the studied systems.
AOF formation and effect of the test compounds on this process were recorded on the Luminometer-1251 instrument (LKB, Sweden).
Because of such "distension" of the kinetic curve, chemiluminescence light sum was recorded during the first 3-5 minutes which reflected a total amount of light quantums produced in the system till achieving the maximum CL intensity values.

[2] = system: Lewis pulmonary carcinoma (LLC); assay: LLC metastasizing: compound III substance versus tabletted dosage form; assay type: in vivo, C57BL/6 female mice; conditions: C57BL/6 mice with LLC; oral 500 µg/kg (active basis) daily day 1-10; 24 days
Protocol: To estimate therapeutic efficacy of compound III tabletted dosage form (0.2 g tablets 6 mm in diameter comprising 17 mg substance) studies were carried out on the model of spontaneous LLC carcinoma metastasizing.
Experiments were carried out on C57BL/6 female mice weighing 20-25 g. Experimental groups included 8 animals and the control group 11 mice. Substance and dosage form of compound III were administered orally at a dose 500 µg/kg (at a rate per an active basis) daily from day 1 till day 10 of experiment. Experiment lasted for 24 days.

[3] = system: thromboxane A2 and prostacycline; assay: Prostacycline to thromboxane ratio in mice with Lewis pulmonary carcinoma; assay type: in vivo, C57B1 male mice; conditions: mice with transplanted Lewis carcinoma, day 24; 500 µg/kg per day in drinking water
Protocol: Experiments were carried out on C57B1 male mice weighing 18-20 g. Lewis pulmonary carcinoma (generation 3) transplantation was performed according to a conventional technique [Experimental estrimation of antitumor drugs in the U.S.S.R. and the U.S.A. edited by E.P.Sof'ina, A.B.Syrkin, A.Goldin, A.Kline. Moscow, Meditsina publishers (1980), 296 pp.]. Each group included 8 animals. Administration of compound III at a dose 500 µg/kg per day in drinking water was commenced since 24 hours after tumor transplantation.
Determination of thromboxane A2 and prostacycline was done according to the technique described in example 35. By day 24 of experiments animals were sacrified and the test parameters were determined.
Groups of animals: • Group 1 - intact control. • Group 2 - mice with transplanted Lewis carcinoma. • Group 3 - mice with transplanted Lewis carcinoma + compound III.

Compound: O=C(O)CCCC(=O)NCCc1c[nH]cn1 [compound III, N-GLUTARYLHISTAMINE]
- Blood serum, MDA, nM/ml ([1]; intragastral 3 days with CCl4, 50 µg/kg): 4.05 ± 0.198*^2 nM/ml
- Blood serum, MDA, nM/ml ([1]; intragastral 3 days with CCl4, 500 µg/kg): 3.89 ± 0.11**^2 nM/ml
- Liver, MDA, nM/mg of tissue ([1]; 50 µg/kg): 4.98 ± 0.13**^2 nM/mg of tissue
- Liver, diene conjugates, E232/mg of tissue ([1]; 50 µg/kg): 16.25 ± 0.61 E232/mg of tissue
- Liver, diene ketones, trienes E278/mg of tissue ([1]; 50 µg/kg): 8.42 ± 0.25**^2 E278/mg of tissue
- Liver, MDA, nM/mg of tissue ([1]; 500 µg/kg): 5.01 ± 0.17**2 nM/mg of tissue
- Liver, diene conjugates, E232/mg of tissue ([1]; 500 µg/kg): 15.89 ± 0.38 E232/mg of tissue
- Liver, diene ketones, trienes E278/mg of tissue ([1]; 500 µg/kg): 8.24 ± 0.19*^2 E278/mg of tissue
- B5 /P-450 (P-450 and B5 cytochromes): 0.97*
- B5 cytochrome nM/mg of protein (P-450 and B5 cytochromes): 1.00 ± 0.03 nM/mg of protein
- P-450B cytochromes nM/mg of protein (P-450 and B5 cytochromes): 0.72 ± 0.02 nM/mg of protein
- P-450B/p-450L (P-450 and B5 cytochromes): 2.32**
- Chemiluminiscence intensity (mV) + σn-1 (superoxide anion-radical; 0.1 mM, control of the series as in the table): 5670 ± 379 mV
- relative effect: 1+/I- (superoxide anion-radical; 1 mM): 0.72
- Chemiluminiscence intensity (mV) + σn-1 (superoxide anion-radical; 1 mM, control of the series 5616 ± 173, 5391 ± 195, 7290 ± 128 or 6776 ± 150): 4027 ± 683 mV
- Mean number of metastases [2]: 22.5 ± 0.9
- Metastasizing inhibition percent [2]: 46.4%
- Metastasizing rate in percent [2]: 100%
- Tumor mass [2]: 12.9 ± 0.9 g
- Prostacycline [3]: 5.80 ± 0.75*^2
- Ratio 6-keto-PGF1α :TXB2 [3]: 0.80 ± 0.11*^2
- Thromboxane A2 [3]: 7.23 ± 0.18*^C
